# Measurements as given in PMC3929971 (Chemistry (Weinheim an der Bergstrasse, Germany), 2013).
# Target: T1, Mtb MraY (phospho-MurNAc-pentapeptide translocase, translocase I) (Mycobacterium tuberculosis, UniProt P9WMW7)
# T1 sequence (P9WMW7 1-359): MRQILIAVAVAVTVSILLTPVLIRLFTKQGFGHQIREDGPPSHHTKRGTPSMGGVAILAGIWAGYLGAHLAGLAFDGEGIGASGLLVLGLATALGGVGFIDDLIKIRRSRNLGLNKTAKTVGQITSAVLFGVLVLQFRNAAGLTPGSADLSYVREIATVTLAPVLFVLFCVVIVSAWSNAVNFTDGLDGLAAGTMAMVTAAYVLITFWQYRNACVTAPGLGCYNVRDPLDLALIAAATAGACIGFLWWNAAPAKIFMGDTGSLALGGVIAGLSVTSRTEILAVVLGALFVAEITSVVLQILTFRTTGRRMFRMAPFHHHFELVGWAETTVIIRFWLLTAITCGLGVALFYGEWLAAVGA
# Assay: MraY enzyme inhibition
# Assay type: biochemical
smiles,measurement,value
"CO[C@H]1[C@@H](O)[C@H](n2ccc(=O)[nH]c2=O)O[C@@H]1[C@@H](O[C@H]1OC(C(=O)N[C@H]2CCCCNC2=O)=C[C@H](O)[C@@H]1O)C(N)=O [compound 1, Capuramycin]",IC50,18 nM
